Values quoted from earlier work as cited in US20210235730A1, “FOOD PROTECTION OF FRUIT, CEREAL AND VEGETABLE AND DERIVATIVES” (Hawei Technologies Co., Ltd., priority 2018, published 2021).

Assays:
moulds and yeasts = details: raw pork, heat-treated and pasteurised
[1] = test system: coliform microorganisms and arerobic spore-forming microorganisms; details: raw pork, heat-treated and pasteurised

With `N=C(N)N` [guanidium] as the molecule, how does the “effect on growth of moulds and yeasts” value (moulds and yeasts) read?
The value was “has an effect on the growth”.

What about the “effect on coliform and aerobic spore-forming microorganisms” value [1] of the same molecule?
The value was “not significantly influenced”.
